# Where two headings read alike, the source gives them in different places.
# Assays:
# CDK9/cyclinT1(h) = CDK9/cyclinT1(h) (Homo sapiens (Human), UniProt P50750); test: IC50 profiler radiometric kinase assay (Millipore); type: biochemical; settings: CMGC
# [1] = molecular target: PI3 Kinase (p110α/p85α)(h) (Homo sapiens (Human), UniProt P42336); test: IC50 profiler radiometric kinase assay (Millipore); type: biochemical; settings: Lipid/Atypical
# CaMKI(h) = CaMKI(h) (Homo sapiens (Human), UniProt Q14012); test: IC50 profiler radiometric kinase assay (Millipore); type: biochemical; settings: CAMK
# Ramos = test: CellTiter-Glo proliferation/viability assay; type: cell-based, human; settings: Homo sapiens, Ramos, read-out: Ramos EC50
# p70S6K(h) = p70S6K(h) (Homo sapiens, UniProt P23443); test: IC50 profiler radiometric kinase assay (Millipore); type: biochemical; settings: AGC
# p70S6K(h), sequence (P23443 whole entry, looked up): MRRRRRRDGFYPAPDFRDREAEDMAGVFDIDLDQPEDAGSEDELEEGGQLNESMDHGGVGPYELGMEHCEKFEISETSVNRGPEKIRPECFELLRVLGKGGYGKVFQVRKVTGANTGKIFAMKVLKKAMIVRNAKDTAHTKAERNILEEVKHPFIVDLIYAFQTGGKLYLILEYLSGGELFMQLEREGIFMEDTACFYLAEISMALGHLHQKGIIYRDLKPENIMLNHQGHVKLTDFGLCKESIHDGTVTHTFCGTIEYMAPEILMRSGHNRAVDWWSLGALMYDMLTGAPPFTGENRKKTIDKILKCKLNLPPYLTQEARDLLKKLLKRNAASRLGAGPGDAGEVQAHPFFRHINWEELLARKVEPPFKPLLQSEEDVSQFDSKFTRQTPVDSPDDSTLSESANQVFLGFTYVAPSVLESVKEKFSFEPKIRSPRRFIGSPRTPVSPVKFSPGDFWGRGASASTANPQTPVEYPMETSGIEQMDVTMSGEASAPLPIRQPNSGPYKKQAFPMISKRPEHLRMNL
# BTK = BTK (Homo sapiens (Human), UniProt Q06187); settings: read-out: BTK IC50
# BTK, sequence (Q06187 whole entry): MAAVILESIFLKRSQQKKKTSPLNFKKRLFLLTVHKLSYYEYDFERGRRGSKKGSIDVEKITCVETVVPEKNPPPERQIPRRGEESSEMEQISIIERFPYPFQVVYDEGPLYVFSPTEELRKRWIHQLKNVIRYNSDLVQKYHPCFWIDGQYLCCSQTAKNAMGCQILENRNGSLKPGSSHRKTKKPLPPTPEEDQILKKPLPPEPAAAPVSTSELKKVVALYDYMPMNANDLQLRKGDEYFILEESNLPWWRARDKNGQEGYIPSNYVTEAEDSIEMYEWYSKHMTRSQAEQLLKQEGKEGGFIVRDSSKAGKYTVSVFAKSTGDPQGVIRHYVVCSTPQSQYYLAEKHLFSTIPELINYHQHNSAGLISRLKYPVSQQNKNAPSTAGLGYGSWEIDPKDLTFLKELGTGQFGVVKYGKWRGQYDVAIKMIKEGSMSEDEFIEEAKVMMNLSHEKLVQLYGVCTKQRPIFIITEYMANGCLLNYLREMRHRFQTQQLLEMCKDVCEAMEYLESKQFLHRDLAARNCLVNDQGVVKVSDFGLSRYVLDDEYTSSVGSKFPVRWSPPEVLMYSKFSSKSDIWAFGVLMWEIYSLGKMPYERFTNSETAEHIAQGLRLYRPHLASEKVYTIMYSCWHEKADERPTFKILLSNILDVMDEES
# Pim-1(h) = Pim-1(h) (Homo sapiens (Human), UniProt P11309); test: IC50 profiler radiometric kinase assay (Millipore); type: biochemical; settings: CAMK
# Method: (§1) In order to determine the relative enzyme selectivity of these amino naphthyridinones, representative amino naphthyridinones were evaluated for their ability to inhibit various kinases. Kinases were selected for a broad representation of the kinome (see FIG. 2: Kinases Evaluated). Compounds were evaluated using the IC50 profiler assay (Millipore), which measures substrate phosphorylation via γ-^33P-ATP transfer by the kinase of interest.
# (§2) The assay directly measures the catalytic incorporation of phosphate onto kinase substrates. The kinase protein is incubated in buffer with substrate and γ-^33P-ATP. The reaction is initiated by the addition of the Mg-ATP mix. At the end of the reaction incubation time, the reaction is stopped by the addition of phosphoric acid solution and 10 μL of the reaction is spotted onto a filtermat, washed, dried and counted in scintillation fluid. […] In particular the amino naphthyridinones inhibited Abl and some but not all tested members of the Tec and Src families of tyrosine kinases, but not tyrosine-like kinases or the non-tyrosine kinases tested (See FIG. 2: Compound 1). […] Other known drugs with activity against BTK and SFKs, such as dasatinib and bosutinib, have activity against a broader array of tyrosine kinases as well as inhibiting non-tyrosine kinases (See FIG. 2: Dasatinib).
# IKKα(h) = IKKα(h) (Homo sapiens (Human), UniProt O15111); test: IC50 profiler radiometric kinase assay (Millipore); type: biochemical; settings: MISC
# Method: as §1, §2
# Plk1(h) = Plk1(h) (Homo sapiens (Human), UniProt P53350); test: IC50 profiler radiometric kinase assay (Millipore); type: biochemical; settings: MISC
# Method: as §1, §2
# Hck(h) = Hck(h) (Homo sapiens (Human), UniProt P08631); test: IC50 profiler radiometric kinase assay (Millipore); type: biochemical; settings: TK
# Method: as §1, §2
# Flt3(h) = Flt3(h) (Homo sapiens (Human), UniProt P36888); test: IC50 profiler radiometric kinase assay (Millipore); type: biochemical; settings: TK
# Method: as §1, §2
# JNK1α1(h) = JNK1α1(h) (Homo sapiens (Human), UniProt P45983); test: IC50 profiler radiometric kinase assay (Millipore); type: biochemical; settings: CMGC
# Method: as §1, §2
# c-Kit(h) = c-Kit(h) (Homo sapiens (Human), UniProt P10721); test: IC50 profiler radiometric kinase assay (Millipore); type: biochemical; settings: TK
# c-Kit(h), sequence (P10721 26-976): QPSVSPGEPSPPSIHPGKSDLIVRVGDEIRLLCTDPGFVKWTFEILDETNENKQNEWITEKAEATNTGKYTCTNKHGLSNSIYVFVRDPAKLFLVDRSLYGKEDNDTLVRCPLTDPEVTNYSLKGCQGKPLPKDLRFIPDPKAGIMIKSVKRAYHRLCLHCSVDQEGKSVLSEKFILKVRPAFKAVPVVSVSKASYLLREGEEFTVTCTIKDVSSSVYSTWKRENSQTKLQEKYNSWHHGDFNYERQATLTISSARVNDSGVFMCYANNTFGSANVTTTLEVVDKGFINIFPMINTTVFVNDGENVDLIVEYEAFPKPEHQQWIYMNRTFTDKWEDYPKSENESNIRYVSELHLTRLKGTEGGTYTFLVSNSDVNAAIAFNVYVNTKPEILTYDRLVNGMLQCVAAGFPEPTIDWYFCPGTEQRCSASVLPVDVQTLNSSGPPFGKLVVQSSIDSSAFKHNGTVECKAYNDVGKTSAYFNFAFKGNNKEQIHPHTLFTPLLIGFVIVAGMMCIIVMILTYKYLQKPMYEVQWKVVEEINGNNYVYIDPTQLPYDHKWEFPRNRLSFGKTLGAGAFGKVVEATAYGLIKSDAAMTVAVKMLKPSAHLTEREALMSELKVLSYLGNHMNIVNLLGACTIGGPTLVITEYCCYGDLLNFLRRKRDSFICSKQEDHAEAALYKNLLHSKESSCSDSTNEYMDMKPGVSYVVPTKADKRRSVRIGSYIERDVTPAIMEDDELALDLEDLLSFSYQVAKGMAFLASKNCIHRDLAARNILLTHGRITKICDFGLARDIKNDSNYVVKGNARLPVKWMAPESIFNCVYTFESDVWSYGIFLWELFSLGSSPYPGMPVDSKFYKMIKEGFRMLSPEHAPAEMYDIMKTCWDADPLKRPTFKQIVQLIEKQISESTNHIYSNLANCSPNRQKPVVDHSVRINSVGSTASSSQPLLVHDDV
# Method: as §1, §2
# cSRC(h) = cSRC(h) (Homo sapiens (Human), UniProt P12931); test: IC50 profiler radiometric kinase assay (Millipore); type: biochemical; settings: TK
# Method: as §1, §2
# MAPKAP-K2(h) = MAPKAP-K2(h) (Homo sapiens (Human), UniProt P49137); test: IC50 profiler radiometric kinase assay (Millipore); type: biochemical; settings: CAMK
# Method: as §1, §2
# BTK(h) = BTK(h) (Homo sapiens (Human), UniProt Q06187); test: IC50 profiler radiometric kinase assay (Millipore); type: biochemical; settings: TK
# BTK(h), sequence (Q06187 whole entry): as the sequence (Q06187 whole entry) above
# Method: as §1, §2
# c-RAF(h) = c-RAF(h) (Homo sapiens (Human), UniProt P04049, Y340D/Y341D); test: IC50 profiler radiometric kinase assay (Millipore); type: biochemical; settings: TKL
# Method: as §1, §2
# SAPK2a(h) = SAPK2a(h) (Homo sapiens (Human), UniProt Q16539); test: IC50 profiler radiometric kinase assay (Millipore); type: biochemical; settings: CMGC
# Method: as §1, §2
# PDK1(h) = PDK1(h) (Homo sapiens (Human), UniProt O15530); test: IC50 profiler radiometric kinase assay (Millipore); type: biochemical; settings: AGC
# PDK1(h), sequence (O15530 whole entry): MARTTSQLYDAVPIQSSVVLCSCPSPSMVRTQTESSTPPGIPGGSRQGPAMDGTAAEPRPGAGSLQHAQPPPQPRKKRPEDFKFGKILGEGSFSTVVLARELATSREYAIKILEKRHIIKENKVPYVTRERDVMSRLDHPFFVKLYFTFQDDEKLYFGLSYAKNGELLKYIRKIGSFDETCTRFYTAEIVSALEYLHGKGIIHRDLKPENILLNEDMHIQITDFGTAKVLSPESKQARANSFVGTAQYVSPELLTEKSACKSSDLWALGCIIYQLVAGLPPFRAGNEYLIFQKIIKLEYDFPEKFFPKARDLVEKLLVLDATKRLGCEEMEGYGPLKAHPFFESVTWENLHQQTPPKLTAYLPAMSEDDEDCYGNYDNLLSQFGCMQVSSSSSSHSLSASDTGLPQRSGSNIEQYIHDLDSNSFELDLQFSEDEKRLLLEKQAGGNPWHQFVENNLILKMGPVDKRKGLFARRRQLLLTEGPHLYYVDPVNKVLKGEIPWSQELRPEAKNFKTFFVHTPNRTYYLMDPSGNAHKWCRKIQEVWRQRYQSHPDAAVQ
# Method: as §1, §2
# Itk(h) = Itk(h) (Homo sapiens (Human), UniProt Q08881); test: IC50 profiler radiometric kinase assay (Millipore); type: biochemical; settings: TK
# Method: as §1, §2
# Aurora-A(h) = Aurora-A(h) (Homo sapiens (Human), UniProt O14965); test: IC50 profiler radiometric kinase assay (Millipore); type: biochemical; settings: MISC
# Method: as §1, §2
# Abl(T315I)(h) = Abl(T315I)(h) (Homo sapiens (Human), UniProt P00519, T315I); test: IC50 profiler radiometric kinase assay (Millipore); type: biochemical; settings: TK
# Method: as §1, §2
# JNK2α2(h) = JNK2α2(h) (Homo sapiens (Human), UniProt P45984); test: IC50 profiler radiometric kinase assay (Millipore); type: biochemical; settings: CMGC
# Method: as §1, §2
# PAK2(h) = PAK2(h) (Homo sapiens (Human), UniProt Q13177); test: IC50 profiler radiometric kinase assay (Millipore); type: biochemical; settings: STE
# Method: as §1, §2
# PDGFRα(h) = PDGFRα(h) (Homo sapiens (Human), UniProt P16234); test: IC50 profiler radiometric kinase assay (Millipore); type: biochemical; settings: TK
# PDGFRα(h), sequence (P16234 24-1089): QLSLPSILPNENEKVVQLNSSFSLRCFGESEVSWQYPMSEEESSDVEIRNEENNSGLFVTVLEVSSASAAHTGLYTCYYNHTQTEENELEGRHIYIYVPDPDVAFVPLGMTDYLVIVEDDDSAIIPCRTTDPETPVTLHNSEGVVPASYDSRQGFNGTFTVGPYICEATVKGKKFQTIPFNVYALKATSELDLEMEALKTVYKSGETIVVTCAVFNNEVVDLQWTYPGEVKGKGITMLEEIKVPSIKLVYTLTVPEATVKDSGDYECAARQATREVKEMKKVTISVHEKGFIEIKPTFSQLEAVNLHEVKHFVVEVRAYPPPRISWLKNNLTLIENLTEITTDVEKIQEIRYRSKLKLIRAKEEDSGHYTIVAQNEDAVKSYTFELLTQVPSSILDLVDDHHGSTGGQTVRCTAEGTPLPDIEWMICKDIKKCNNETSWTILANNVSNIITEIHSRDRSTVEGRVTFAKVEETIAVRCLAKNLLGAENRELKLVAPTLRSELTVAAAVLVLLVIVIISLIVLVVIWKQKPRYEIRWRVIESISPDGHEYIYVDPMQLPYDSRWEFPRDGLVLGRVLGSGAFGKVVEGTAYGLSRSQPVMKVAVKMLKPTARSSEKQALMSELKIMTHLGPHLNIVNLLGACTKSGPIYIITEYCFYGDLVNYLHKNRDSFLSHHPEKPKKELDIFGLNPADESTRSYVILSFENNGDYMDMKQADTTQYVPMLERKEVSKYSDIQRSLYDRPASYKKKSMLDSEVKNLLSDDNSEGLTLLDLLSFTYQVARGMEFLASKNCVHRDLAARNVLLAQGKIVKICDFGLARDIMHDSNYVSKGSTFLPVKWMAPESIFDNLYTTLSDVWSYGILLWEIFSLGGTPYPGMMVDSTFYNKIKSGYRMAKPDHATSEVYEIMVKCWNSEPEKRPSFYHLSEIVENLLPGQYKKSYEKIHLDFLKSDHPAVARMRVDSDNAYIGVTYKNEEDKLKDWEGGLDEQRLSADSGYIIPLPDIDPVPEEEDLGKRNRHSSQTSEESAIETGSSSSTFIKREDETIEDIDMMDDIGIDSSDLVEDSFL
# Method: as §1, §2
# [2] = tested on: PARP cleavage in DoHH-2 cells; test: PARP cleavage by Western blotting; type: cell-based, human; settings: DoHH-2 cells, 2, 6 and 24 hr, low micromolar concentrations
# Method: Additionally, using an exemplary amino naphthyridinones, Compound 1, […] PARP cleavage has been observed. PARP is downstream of the caspase cascade; its cleavage is an indicator or caspase-dependent apoptosis. PARP cleavage was assessed by Western blotting exponentially growing cultures of DoHH-2 cells that had been cultured overnight (18 h) in 1% FBS containing RPMI1640 media. These cells were washed, counted and plated with and without Compound 1 for 2, 6, and 24 hr. Cells were centrifuged and cell pellets were lysed using RIPA buffer from CST. Protein lysates were quantified using the BCA protein assay kit from Pierce and used in a standard Western blotting procedure. Anti-PARP antibody was obtained from CST and used as per the manufacturer's protocol. […] Thus amino naphthyridinones can be used to induce apoptosis in tumor cells.
# [3] = molecular target: PI3 Kinase (p110β/p85α)(h) (Homo sapiens (Human), UniProt P42338); test: IC50 profiler radiometric kinase assay (Millipore); type: biochemical; settings: Lipid/Atypical
# DoHH2 = test: CellTiter-Glo proliferation/viability assay; type: cell-based, human; settings: Homo sapiens
# Lyn = Lyn (Homo sapiens (Human), UniProt P07948); test: biochemical
# [4] = DOHH-2, 48 hrs, read-out: DoHH2 EC50
# CDK9/cyclinT1(h), sequence (P50750 whole entry): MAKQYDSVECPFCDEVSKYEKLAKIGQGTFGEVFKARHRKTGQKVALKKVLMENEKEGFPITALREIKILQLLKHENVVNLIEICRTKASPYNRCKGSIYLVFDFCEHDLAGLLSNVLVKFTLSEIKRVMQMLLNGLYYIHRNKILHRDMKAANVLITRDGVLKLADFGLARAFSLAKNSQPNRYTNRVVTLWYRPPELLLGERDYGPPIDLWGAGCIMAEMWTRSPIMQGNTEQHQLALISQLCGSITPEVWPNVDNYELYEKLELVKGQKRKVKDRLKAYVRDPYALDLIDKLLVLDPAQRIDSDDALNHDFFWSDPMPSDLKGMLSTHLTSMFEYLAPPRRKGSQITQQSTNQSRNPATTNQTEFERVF
# CDK9/cyclinT1(h), sequence (O60563 whole entry partner): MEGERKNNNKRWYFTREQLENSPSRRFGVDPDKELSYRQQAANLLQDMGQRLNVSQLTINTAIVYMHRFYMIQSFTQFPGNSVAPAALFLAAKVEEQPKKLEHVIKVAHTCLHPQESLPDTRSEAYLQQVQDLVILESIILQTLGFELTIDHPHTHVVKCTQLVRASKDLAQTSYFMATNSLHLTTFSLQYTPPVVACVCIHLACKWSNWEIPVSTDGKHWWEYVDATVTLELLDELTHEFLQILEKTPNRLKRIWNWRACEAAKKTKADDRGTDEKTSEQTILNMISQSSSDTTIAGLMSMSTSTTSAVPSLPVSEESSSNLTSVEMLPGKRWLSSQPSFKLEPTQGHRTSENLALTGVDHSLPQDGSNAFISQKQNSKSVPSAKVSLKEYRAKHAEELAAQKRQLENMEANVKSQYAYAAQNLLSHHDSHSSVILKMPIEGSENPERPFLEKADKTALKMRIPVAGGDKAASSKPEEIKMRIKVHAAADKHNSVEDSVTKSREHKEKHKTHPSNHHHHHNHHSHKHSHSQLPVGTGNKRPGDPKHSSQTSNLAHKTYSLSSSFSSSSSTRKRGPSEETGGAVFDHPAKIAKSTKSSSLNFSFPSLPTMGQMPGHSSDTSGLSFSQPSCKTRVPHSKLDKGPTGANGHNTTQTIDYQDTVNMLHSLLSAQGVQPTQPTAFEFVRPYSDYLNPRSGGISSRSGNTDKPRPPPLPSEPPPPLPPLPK
smiles,measurement,setting,value
"CCN(CC)CCOc1ccc(Nc2cc3c(cn2)cc(-c2ccccc2)c(=O)n3CC)nc1 [Compound 1, 7-[5-(2-Diethylamino-ethoxy)-pyridin-2-ylamino]-1-ethyl-3-phenyl-1H-[1, 6]naphthyridin-2-one]",IC50,CDK9/cyclinT1(h),> 1000 nM
same,IC50,[1],> 1000 nM
same,IC50,CaMKI(h),> 1000 nM
same,EC50,Ramos; 48 hrs,1 to 10 µM
same,IC50,p70S6K(h),> 1000 nM
same,IC50,BTK,< 100 nM
same,IC50,Pim-1(h),> 1000 nM
same,IC50,IKKα(h),> 1000 nM
same,IC50,Plk1(h),> 1000 nM
same,IC50,Hck(h),10 to 100 nM
same,IC50,Flt3(h),> 1000 nM
same,IC50,JNK1α1(h),> 1000 nM
same,IC50,c-Kit(h),100 to 500 nM
same,IC50,cSRC(h),< 10 nM
same,IC50,MAPKAP-K2(h),> 1000 nM
same,IC50,BTK(h),10 to 100 nM
same,IC50,c-RAF(h),100 to 500 nM
same,IC50,SAPK2a(h),500 to 1000 nM
same,IC50,PDK1(h),> 1000 nM
same,IC50,Itk(h),> 1000 nM
same,IC50,Aurora-A(h),> 1000 nM
same,IC50,Abl(T315I)(h),100 to 500 nM
same,IC50,JNK2α2(h),> 1000 nM
same,IC50,PAK2(h),> 1000 nM
same,IC50,PDGFRα(h),100 to 500 nM
same,PARP cleavage,[2],induced the apoptotic pathway as shown by PARP cleavage
same,IC50,[3],> 1000 nM
same,EC50,"DoHH2; DOHH-2, read-out: EC50 (Proliferation)",< 1000 nM
same,EC50,DoHH2; [4],< 1000 nM
same,IC50,Lyn,100 to 1000 nM
"CCn1c(=O)c(-c2ccccc2)cc2cnc(Nc3ncc(CCN(C)C)s3)cc21 [Compound 2, 7-[5-(2-Dimethylamino-ethyl)-thiazol-2-ylamino]-1-ethyl-3-phenyl-1H-[1,6]naphthyridin-2-one]",IC50,CDK9/cyclinT1(h),> 1000 nM
same,IC50,[1],> 1000 nM
same,IC50,CaMKI(h),> 1000 nM
same,EC50,Ramos; 48 h,1 to 10 µM
same,IC50,p70S6K(h),> 1000 nM
same,IC50,BTK,> 5000 nM
same,IC50,Pim-1(h),> 1000 nM
same,IC50,IKKα(h),> 1000 nM
same,IC50,Plk1(h),> 1000 nM
same,IC50,Hck(h),500 to 1000 nM
same,IC50,Flt3(h),> 1000 nM
same,IC50,JNK1α1(h),> 1000 nM
same,IC50,c-Kit(h),100 to 500 nM
same,IC50,cSRC(h),100 to 500 nM
same,IC50,MAPKAP-K2(h),> 1000 nM
same,IC50,BTK(h),100 to 500 nM
same,IC50,c-RAF(h),100 to 500 nM
same,IC50,SAPK2a(h),> 1000 nM
same,IC50,PDK1(h),> 1000 nM
same,IC50,Itk(h),> 1000 nM
same,IC50,Aurora-A(h),> 1000 nM
same,IC50,Abl(T315I)(h),500 to 1000 nM
same,IC50,JNK2α2(h),> 1000 nM
same,IC50,PAK2(h),> 1000 nM
same,IC50,PDGFRα(h),500 to 1000 nM
same,IC50,[3],> 1000 nM
same,EC50,DoHH2; [4],1000 to 10000 nM
same,IC50,Lyn; Lyn IC50,1000 to 5000 nM

# — US9714247B2, “Multiple kinase pathway inhibitors” (Mannkind Corporation, priority 2012, dated 2017)
